Measured values reported in patent US20240343732A1, “COMPOUNDS FOR DEGRADATION OF CYCLIN-DEPENDENT KINASE 7(CDK7)” (QURIENT CO., LTD., priority 2021, published 2024).
pIC50: −log10 of the molar value.

Columns and labels:
CDK5 = target: T1, CDK5 (Homo sapiens, UniProt Q00535); assay: Binding assay (FRET, LanthaScreen Eu, Tracer236) for CDK5; details: for pIC50: read-out: CDK5 IC50 (enzyme binding assay)
T1 construct: His; purchased Invitrogen PR8543B
Description: (§1) Inhibition activity of compound to CDK7 kinase was tested in a binding assay which was applied to the FRET (fluorescence resonance energy transfer) principle from the europium (Eu) donor fluorophore to the acceptor fluorophore on the kinase tracer. Test compounds were made to 1.125 mM of compound solution, and then this compound solution 4-fold serial diluted in 8 steps using an automated liquid handler (JANUS™, PerkinElmer). 80 nL/well of each diluted compound solution was added into the 384-well plate (Greiner, Cat #784075) first and 7.5 ul/well of working solution [5 nM of CDK7/CycH/MNAT1 (Invitrogen, Cat #PR6749B), 4 nM of Biotin anti-His Tag Antibody (Invitrogen, Cat #PV6090), and LanthaScreen® Eu-Streptavidin (Invitrogen, Cat #PV6025)] was added. After mixing the solution well, the same volume with the working solution of Tracer236 (Invitrogen, Cat #PV5592) was added into each well in the plate. The plate was incubated for 60 minutes at room temperature and then all the fluorescence were measured using Envision leader (Perkin Elmer, USA) [Laser as excitation light; […] as the first and the second emission filter]. Data was analysed using XL Fit software.
(§2) All of the synthesized compounds were screened in the above-mentioned assay procedure. To identify the inhibition activity of compounds for other CDKs including CDK1 (Invitrogen, Cat #PR4768C), CDK2 (Invitrogen, Cat #PR4448B) and CDK5 (Invitrogen, Cat #PR8543B) were tested using the same protocol under reasonable concentration of Tracer236 and kinases for each assay. The formula for the assay buffer summarized in below table.

CDK2 = target: T2, CDK2 (Homo sapiens, UniProt P24941); assay: Binding assay (FRET, LanthaScreen Eu, Tracer236) for CDK2; details: for pIC50: read-out: CDK2 IC50 (enzyme binding assay)
T2 construct: His; purchased Invitrogen PR4448B
Description: as §1, §2

CDK1 = target: T3, CDK1 (Homo sapiens, UniProt P06493); assay: Binding assay (FRET, LanthaScreen Eu, Tracer236) for CDK1; details: for pIC50: read-out: CDK1 IC50 (enzyme binding assay)
T3 construct: His; purchased Invitrogen PR4768C
T3 sequence (P06493 whole entry): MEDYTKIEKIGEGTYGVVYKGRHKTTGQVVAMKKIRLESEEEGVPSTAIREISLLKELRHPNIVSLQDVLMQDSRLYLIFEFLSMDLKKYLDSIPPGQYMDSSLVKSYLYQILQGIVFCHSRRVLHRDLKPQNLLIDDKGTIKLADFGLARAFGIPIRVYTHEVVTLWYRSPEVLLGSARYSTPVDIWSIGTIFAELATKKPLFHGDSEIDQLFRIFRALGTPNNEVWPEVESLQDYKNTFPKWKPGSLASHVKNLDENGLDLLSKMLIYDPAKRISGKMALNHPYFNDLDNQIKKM
T3 sequence (P14635 whole entry partner): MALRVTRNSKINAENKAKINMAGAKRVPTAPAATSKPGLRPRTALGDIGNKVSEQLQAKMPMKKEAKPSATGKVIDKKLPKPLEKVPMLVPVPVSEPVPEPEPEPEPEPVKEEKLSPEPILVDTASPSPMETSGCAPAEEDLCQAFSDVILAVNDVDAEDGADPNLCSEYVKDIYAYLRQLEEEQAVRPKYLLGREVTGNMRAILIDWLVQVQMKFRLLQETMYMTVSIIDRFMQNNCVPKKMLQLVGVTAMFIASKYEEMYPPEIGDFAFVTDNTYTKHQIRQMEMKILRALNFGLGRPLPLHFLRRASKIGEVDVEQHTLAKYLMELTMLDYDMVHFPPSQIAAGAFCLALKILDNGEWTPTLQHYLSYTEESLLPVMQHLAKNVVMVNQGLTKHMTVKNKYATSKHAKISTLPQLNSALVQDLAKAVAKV
Description: as §1, §2

CDK7 protein = target: T4, CDK7 protein (Homo sapiens, UniProt P50613); assay: Western blot assay for CDK7 protein degradation in A2780 cells; format: cell-based; details: 24 hours; for DC50: read-out: Compound concentration that caused 50% CDK7 protein degradation in A2780 cells (DC50);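 on all read-outs here: A is DC50 up to 100 nM B is 100 to 1000 nM C is above 1000 nM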
T4 construct: To verify endogenous CDK7 protein degradation; endogenous in cells; host or cells: A2780 (ECACC 93112519)
T4 sequence (P50613 whole entry): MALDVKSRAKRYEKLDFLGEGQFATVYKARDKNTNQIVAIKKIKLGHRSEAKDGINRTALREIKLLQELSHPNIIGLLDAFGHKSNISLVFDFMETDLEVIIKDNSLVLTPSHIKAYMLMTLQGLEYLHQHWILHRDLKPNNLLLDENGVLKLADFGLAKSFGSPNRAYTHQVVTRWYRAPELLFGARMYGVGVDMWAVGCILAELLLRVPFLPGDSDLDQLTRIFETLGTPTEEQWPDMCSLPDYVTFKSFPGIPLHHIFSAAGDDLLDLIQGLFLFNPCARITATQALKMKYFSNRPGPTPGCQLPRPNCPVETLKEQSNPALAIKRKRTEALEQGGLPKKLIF
Description: Human ovarian cancer cell line, A2780 (Cat #93112519) was obtained from ECACC. Cells were grown in RPMI-1640 media (Invitrogen, Cat #22400105) supplemented with 10% FBS (Hyclone, Cat #SH30084.03) and 1% penicillin/streptomycin (Hyclone, Cat #SV30010) and cultured at 37° C., 5% Co2 in a humidified chamber. All cell lines were routinely tested for mycoplasma.
To verify endogenous CDK7 protein degradation upon treatment of CDK7-specific degrader, the western blot assay was conducted a 24 hours' time period. 6×10^5 cells/well of A2780 cells were plated in 6-well plate. After 24 hours, the cells were treated with various concentrations of the compound corresponding range. DMSO solvent without compound served as a control and final DMSO concentration was not to exceed 0.1% of total volume. After 24 hours of incubation at 37° C., 5% Co2 incubator, cells were collected and lysed with 60 ul of lysis buffer. Collected lysates were incubated for 30 min on ice and collect supernatant through centrifugation at 12,000 rpm for 10 min at 4° C. The protein in lysates were quantified with BCA protein quantification kit (Pierce, Cat #23227) following manufacture's protocol. Cell lysates were diluted into 1 ug/ul of concentration with lysis buffer. 20 ug of protein was loaded to each well of 4˜12% Bis-Tris gel (Invitrogen, Cat #NP0336BOX) with MOPS running buffer (Invitrogen, Cat #NP0001). The proteins were transferred from gel to membrane and incubated with primary antibody as followed at 4° C. overnight; CDK7 (CST, Cat #2090S) and β-actin (Santa Cruz, Cat #sc-47778) 1:20,000. The signals were developed and acquired with ImageQuant™ LAS 4000.

CDK7/CycH/MNAT1 = target: T5, CDK7/CycH/MNAT1 (Homo sapiens, UniProt P50613); assay: Binding assay (FRET, LanthaScreen Eu, Tracer236) for CDK7; details: read-out: CDK7 IC50 (enzyme binding assay)
T5 construct: His; purchased Invitrogen PR6749B
T5 sequence (P50613 whole entry): as above
T5 sequence (P51946 whole entry partner): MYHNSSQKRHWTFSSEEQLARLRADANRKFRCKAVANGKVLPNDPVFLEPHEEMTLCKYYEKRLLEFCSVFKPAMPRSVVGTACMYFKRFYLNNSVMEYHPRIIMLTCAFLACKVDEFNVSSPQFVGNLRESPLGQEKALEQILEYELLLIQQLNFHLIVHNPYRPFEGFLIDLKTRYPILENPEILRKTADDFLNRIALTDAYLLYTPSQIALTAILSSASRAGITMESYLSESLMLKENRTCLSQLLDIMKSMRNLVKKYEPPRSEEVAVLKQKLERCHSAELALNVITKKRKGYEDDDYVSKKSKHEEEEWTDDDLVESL
T5 sequence (P51948 whole entry partner): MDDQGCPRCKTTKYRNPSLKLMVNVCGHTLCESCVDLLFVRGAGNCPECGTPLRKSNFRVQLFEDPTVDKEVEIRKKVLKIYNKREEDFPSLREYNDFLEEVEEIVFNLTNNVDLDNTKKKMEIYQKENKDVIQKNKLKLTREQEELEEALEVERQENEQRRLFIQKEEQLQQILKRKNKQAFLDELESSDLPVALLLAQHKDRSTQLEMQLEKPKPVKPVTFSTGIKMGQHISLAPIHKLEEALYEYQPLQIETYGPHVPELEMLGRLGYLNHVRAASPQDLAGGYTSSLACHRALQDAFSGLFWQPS
Description: as §1, §2

T1 sequence (Q00535 whole entry): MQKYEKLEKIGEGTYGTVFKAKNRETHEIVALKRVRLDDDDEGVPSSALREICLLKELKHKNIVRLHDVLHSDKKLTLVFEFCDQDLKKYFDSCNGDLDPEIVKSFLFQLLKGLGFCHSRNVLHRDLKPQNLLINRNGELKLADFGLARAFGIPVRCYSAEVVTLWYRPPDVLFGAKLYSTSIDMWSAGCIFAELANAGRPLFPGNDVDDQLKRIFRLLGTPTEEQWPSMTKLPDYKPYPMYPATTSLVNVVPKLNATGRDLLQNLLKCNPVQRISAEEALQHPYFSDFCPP
T1 sequence (Q15078 99-307 partner limits assumed): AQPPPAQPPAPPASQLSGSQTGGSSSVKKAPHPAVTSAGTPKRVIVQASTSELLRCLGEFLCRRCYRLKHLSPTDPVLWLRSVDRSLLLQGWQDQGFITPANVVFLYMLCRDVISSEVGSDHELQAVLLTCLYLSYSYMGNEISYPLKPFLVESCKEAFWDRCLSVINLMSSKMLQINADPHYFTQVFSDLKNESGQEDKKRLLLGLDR

Row | SMILES | CDK5/CDK7: Selectivity of CDK7 inhibition over CDK5 inhibition (CDK5) | pIC50 (CDK5) | CDK2/CDK7: Selectivity of CDK7 inhibition over CDK2 inhibition (CDK2) | pIC50 (CDK2) | CDK1/CDK7: Selectivity of CDK7 inhibition over CDK1 inhibition (CDK1) | pIC50 (CDK1) | DC50 (CDK7 protein) | pIC50 (CDK7/CycH/MNAT1) | Compound concentration that caused 50% CDK7 protein degradation in A2780 cells (DC50, nM) (CDK7 protein)
1 | Cc1ncsc1-c1ccc([C@H](C)NC(=O)[C@@H]2C[C@@H](O)CN2C(=O)[C@@H](NC(=O)CCOCCOCCNc2ccc3c(-c4ccccc4CNc4nc(O[C@@H]5CCCNC5)nc5c(C(C)C)cnn45)nccc3c2)C(C)(C)C)cc1 [Compound 17] | A (A indicates [fold] > 500) | < 6.00 | A (A indicates [fold] > 500) | < 6.00 | A (A indicates [fold] > 500) | < 6.00 | ≤ 100 nM | ≥ 7.00 | –
2 | Cc1ncsc1-c1ccc(CNC(=O)[C@@H]2C[C@@H](O)CN2C(=O)[C@@H](NC(=O)C2(F)CC2)C(C)(C)C)c(OCCOCCOCCOCCNc2ccc3c(-c4ccccc4CNc4nc(O[C@@H]5CCCNC5)nc5c(C(C)C)cnn45)nccc3c2)c1 [Compound 19] | A (A indicates [fold] > 500) | < 6.00 | A (A indicates [fold] > 500) | < 6.00 | A (A indicates [fold] > 500) | < 6.00 | ≤ 100 nM | ≥ 7.00 | –
3 | Cc1ncsc1-c1ccc(CNC(=O)[C@@H]2C[C@@H](O)CN2C(=O)[C@@H](NC(=O)C2(F)CC2)C(C)(C)C)c(OCCOCCNc2ccc3c(-c4ccccc4CNc4nc(O[C@@H]5CCCNC5)nc5c(C(C)C)cnn45)nccc3c2)c1 [Compound 20] | A (A indicates [fold] > 500) | < 6.00 | A (A indicates [fold] > 500) | < 6.00 | A (A indicates [fold] > 500) | < 6.00 | ≤ 100 nM | ≥ 7.00 | –
4 | Cc1ncsc1-c1ccc(CNC(=O)[C@@H]2C[C@@H](O)CN2C(=O)[C@@H](NC(=O)C2(F)CC2)C(C)(C)C)c(OCCOCCOCCOCCOCCNc2ccc3c(-c4ccccc4CNc4nc(O[C@@H]5CCCNC5)nc5c(C(C)C)cnn45)nccc3c2)c1 [Compound 21] | A (A indicates [fold] > 500) | < 6.00 | A (A indicates [fold] > 500) | < 6.00 | A (A indicates [fold] > 500) | < 6.00 | ≤ 100 nM | ≥ 7.00 | –
5 | Cc1ncsc1-c1ccc(CNC(=O)[C@@H]2C[C@@H](O)CN2C(=O)[C@@H](NC(=O)C2(F)CC2)C(C)(C)C)c(OCCCCCCCCNc2ccc3c(-c4ccccc4CNc4nc(O[C@@H]5CCCNC5)nc5c(C(C)C)cnn45)nccc3c2)c1 [Compound 22] | B (B indicates 50 < [fold] ≤ 500) | < 6.00 | A (A indicates [fold] > 500) | < 6.00 | A (A indicates [fold] > 500) | < 6.00 | 100 to 1000 nM | 6.00 to 7.00 | B or A
6 | Cc1cc(C(C(=O)N2C[C@H](O)C[C@H]2C(=O)NCc2ccc(-c3scnc3C)cc2OCCOCCOCCNc2ccc3c(-c4ccccc4CNc4nc(O[C@@H]5CCCNC5)nc5c(C(C)C)cnn45)nccc3c2)C(C)C)on1 (stereo partly drawn) [Compound 24] | A (A indicates [fold] > 500) | < 6.00 | A (A indicates [fold] > 500) | < 6.00 | A (A indicates [fold] > 500) | < 6.00 | ≤ 100 nM | ≥ 7.00 | –
7 | Cc1ncsc1-c1ccc(CNC(=O)[C@@H]2C[C@@H](O)CN2C(=O)[C@@H](NC(=O)C2(F)CC2)C(C)(C)C)c(OCCN2CCC(N3CCC(CNc4ccc5c(-c6ccccc6CNc6nc(O[C@@H]7CCCNC7)nc7c(C(C)C)cnn67)nccc5c4)CC3)CC2)c1 [Compound 25] | A (A indicates [fold] > 500) | < 6.00 | A (A indicates [fold] > 500) | < 6.00 | A (A indicates [fold] > 500) | < 6.00 | ≤ 100 nM | ≥ 7.00 | –
8 | Cc1cc([C@@H](C(=O)N2C[C@H](O)C[C@H]2C(=O)NCc2ccc(-c3scnc3C)cc2OCCOCCOCCNc2ccc3c(-c4ccccc4CNc4nc(O[C@@H]5CCCNC5)nc5c(C(C)C)cnn45)nccc3c2)C(C)C)on1 [Compound 26] | A (A indicates [fold] > 500) | < 6.00 | A (A indicates [fold] > 500) | < 6.00 | A (A indicates [fold] > 500) | < 6.00 | > 1000 nM | ≥ 7.00 | –
9 | Cc1cc([C@H](C(=O)N2C[C@H](O)C[C@H]2C(=O)NCc2ccc(-c3scnc3C)cc2OCCOCCOCCNc2ccc3c(-c4ccccc4CNc4nc(O[C@@H]5CCCNC5)nc5c(C(C)C)cnn45)nccc3c2)C(C)C)on1 [Compound 27] | B (B indicates 50 < [fold] ≤ 500) | < 6.00 | B (B indicates 50 < [fold] ≤ 500) | < 6.00 | B (B indicates 50 < [fold] ≤ 500) | < 6.00 | ≤ 100 nM | 6.00 to 7.00 | –
10 | Cc1ncsc1-c1ccc([C@H](C)NC(=O)[C@@H]2C[C@@H](O)CN2C(=O)[C@@H](NC(=O)CCOCCOCCOCCNc2ccc3c(-c4ccccc4CNc4nc(O[C@@H]5CCCNC5)nc5c(C(C)C)cnn45)nccc3c2)C(C)(C)C)cc1 [Compound 28] | A (A indicates [fold] > 500) | < 6.00 | A (A indicates [fold] > 500) | < 6.00 | A (A indicates [fold] > 500) | < 6.00 | ≤ 100 nM | ≥ 7.00 | –
